{"source": "patent US20150352108A1", "about": "“AMINO-PYRIMIDINE COMPOUNDS AS INHIBITORS OF TBK1 AND/OR IKK EPSILON” (Alzheimer's Institute of America, priority 2009, published 2015)", "key": {"[1]": {"tested_on": "IP-10 production, human fibroblast-like synoviocytes (HFLS-RA)", "experiment": "Inhibition of IP-10 production by HFLS-RA cells induced with Poly(I:C)", "assay_type": "cell-based", "conditions": "Poly(I:C) induction", "description": "(§1) HFLS cells (HFLS-RA) isolated from patients with rheumatoid arthritis were obtained from Cell Applications, Inc. (San Diego, Calif.). Cells were seeded in synoviocyte growth medium (Cell Applications, Inc., San Diego, Calif.) and allowed to grow overnight. The following day, media was replaced and cells were treated with varying concentrations of selected compounds according to Formula I (e.g., Example Compound 5) (0.1% final DMSO concentration). Two hours later, cells were induced with 50 µg/mL Poly(I:C) (Sigma-Aldrich, St. Louis, Mo.). Supernatants were collected 20 hours post-induction and used to monitor RANTES and IP-10 levels using DuoSet ELISA kits (Human CXCL10/IP-10 DuoSet & Human CCL5/RANTES DuoSet; R&D Systems, Inc., Minneapolis, Minn.)."}, "[2]": {"tested_on": "insulin-stimulated glucose uptake, 3T3-L1 adipocytes", "experiment": "Glucose uptake assay using differentiated 3T3-L1 adipocytes", "assay_type": "cell-based, Murine", "conditions": "palmitic acid 48 hours", "description": "To determine if IKK/TBK1 inhibitors prevent fatty acid induced insulin resistance in 3T3-L1 adipocytes, insulin-stimulated glucose uptake in the presence of compounds according to Formula I was monitored.\nMurine 3T3-L1 cells were differentiated to adipocytes in 96-well plates by incubating for 2 days in adipogenic cocktail (10 ug/ml insulin, 115 ug/ml isobutylmethylxanthine, 1 uM dexamethasone) followed by incubation in insulin-supplemented medium for 2 days and complete media for an additional 5-10 days. Adipocytes were treated with BSA-complexed palmitic acid and a compound according to Formula I for 48 hours. Following free fatty acid treatment, adipoctyes were insulin-deprived in serum-free media for 2 hours. Subsequently, the media was replaced with KRH buffer containing a compound according to Formula I and 300 nM insulin for 15-20 minutes. [^14C]-labeled 2-deoxyglucose was then added for 15 minutes. Cells were thoroughly washed with ice-cold PBS, and intracellular [^14C]-2-deoxyglucose was measured in cell lysates by scintillation."}, "[3]": {"tested_on": "IFN-α2 mRNA, normal PBMCs", "experiment": "Agonist induced IFN-α2 mRNA in PBMCs from healthy donors (qRT-PCR)", "assay_type": "cell-based, human", "conditions": "LMW poly(I:C), serial dilutions", "text": "(§2) To determine if inhibition of IKKε and/or TBK1 modulates nucleic acid agonist induced gene expression, high molecular weight poly(I:C) (MDA5 agonist) and low weight poly(I:C) (RIG-I agonist) were electroporated into human peripheral blood mononuclear cells (PBMCs) obtained from normal donors, or low molecular weight Poly(I:C) was electroporated into PBMCs from donors that have Systemic Lupus Erythematosus (SLE). Induction of IFN-α2, IFN-β, and BLyS mRNA production was monitored by qRT-PCR.\n(§3) Human PBMCs were collected from healthy donors using routine laboratory procedures. PBMCs from SLE patients were purchased from Astarte Biologics (Redmond, Wash.). The PBMCs were electroporated using Nucleofector® Kit V (Lonza, Walkersville, Md.) with 0.4 ug/mL of high molecular weight poly (I:C) (InvivoGen, San Diego, Calif.) or 0.4 ug/mL low molecular weight poly (I:C) (InvivoGen, San Diego, Calif.) and seeded into wells containing serial dilutions of Example Compound 5 (0.1% final DMSO concentration). […] RNA was quantitated using Quant-iT™ RiboGreen® RNA Assay Kit (Invitrogen, Carlsbad, Calif.). Reverse transcription and real-time PCR were performed using the QuantiTect Probe RT-PCR Kit (Qiagen, Germantown, Md.) and the 7300 Real-Time PCR System (Applied Biosytems, Foster City, Calif.). […]"}, "[4]": {"tested_on": "BLyS mRNA, SLE PBMCs", "experiment": "Agonist induced BLyS mRNA in PBMCs from SLE patients (qRT-PCR)", "assay_type": "cell-based, human", "conditions": "LMW poly(I:C), serial dilutions", "text": "as §2, §3"}, "[5]": {"tested_on": "RANTES production, human fibroblast-like synoviocytes (HFLS-RA)", "experiment": "Inhibition of RANTES production by HFLS-RA cells induced with Poly(I:C)", "assay_type": "cell-based", "conditions": "Poly(I:C) induction", "description": "as §1"}}, "note": "pIC50: −log10 of the molar value.", "data": [{"smiles": "N#Cc1cc(-c2ccnc(Nc3ccc(N4CCOCC4)cc3)n2)ccc1OC1CCOCC1", "note": "[Example 5, 5-(2-{[4-(Morpholin-4-yl)phenyl]amino}pyrimidin-4-yl)-2-(tetrahydro-2H-pyran-4-yloxy)benzaonitrile]", "values": [{"measurement": "pIC50", "setting": "[1]", "result": "~7.22"}, {"measurement": "effect on free fatty acid inhibition of insulin-stimulated glucose uptake", "setting": "[2]", "result": "reverse the inhibitory effects of free fatty acid on insulin-stimulated glucose uptake"}, {"measurement": "induction of IFN-α2 mRNA", "setting": "[3]", "result": "potently inhibited"}, {"measurement": "induction of BLyS mRNA", "setting": "[4]", "result": "potently inhibited"}, {"measurement": "pIC50", "setting": "[5]", "result": "~7.22"}]}]}
